Assay results as given in ChEMBL document CHEMBL5634120, “Natural phytoalexins inspired the discovery of new biphenyls as potent antifungal agents for treatment of invasive fungal infections” (Eur J Med Chem, 2023).
Converted amounts (≈) assume the structure as drawn.

Tests used:
Format in all cases: functional
Candida albicans = test: Antifungal activity against Candida albicans ATCC10231 assessed as inhibition of fungal growth incubated for 72 hrs by broth microdilution method
Candida tropicalis = test: Antifungal activity against Candida tropicalis ATCC1369 assessed as inhibition of fungal growth incubated for 72 hrs by broth microdilution method
Cryptococcus neoformans [1] = test: Antifungal activity against Cryptococcus neoformans ATCC32045 assessed as inhibition of fungal growth incubated for 72 hrs by broth microdilution method
Aspergillus fumigatus = test: Antifungal activity against Aspergillus fumigatus AS3.3913 assessed as inhibition of fungal growth incubated for 72 hrs by broth microdilution method
Cryptococcus neoformans [2] = test: Selectivity ratio of MFC for Cryptococcus neoformans ATCC32045 to MIC for Cryptococcus neoformans ATCC32045
Cryptococcus neoformans [3] = test: Fungicidal activity against Cryptococcus neoformans ATCC32045 incubated for 72 hrs

| SMILES | MIC (Candida albicans) [µg/mL] | MIC (Candida tropicalis) [µg/mL] | MIC (Cryptococcus neoformans [1]) [µg/mL] | MIC (Aspergillus fumigatus) [µg/mL] | Selectivity ratio (Cryptococcus neoformans [2]) | MFC (Cryptococcus neoformans [3]) [µg/mL] |
| --- | --- | --- | --- | --- | --- | --- |
| CCc1cccc(-c2cc(O)c(O)c(OC)c2)c1 | 128 (≈ 524 µM) | 128 (≈ 524 µM) | 32 (≈ 131 µM) | 128 (≈ 524 µM) |  |  |
| CCc1ccccc1-c1cc(O)c(O)c(OC)c1 | 256 (≈ 1050 µM) | 128 (≈ 524 µM) | 64 (≈ 262 µM) | 128 (≈ 524 µM) |  |  |
| COc1cc(-c2ccccc2)cc(O)c1O | 128 (≈ 592 µM) | 128 (≈ 592 µM) | 64 (≈ 296 µM) | 128 (≈ 592 µM) |  |  |
| COc1cc(-c2cc(C(C)(C)C)cc(C(C)(C)C)c2)cc(O)c1O | > 512 | > 512 | > 512 | 128 (≈ 390 µM) |  |  |
| CCCCCCCc1ccc(-c2cc(O)c(O)c(OC)c2)cc1 | 512 (≈ 1630 µM) | 512 (≈ 1630 µM) | 2 (≈ 6.36 µM) | > 512 |  |  |
| CCCCCCc1ccc(-c2cc(O)c(O)c(OC)c2)cc1 | 512 (≈ 1700 µM) | 4 (≈ 13.3 µM) | 1 (≈ 3.33 µM) | > 512 |  |  |
| COc1cc(-c2ccc(C3CCCCC3)cc2)cc(O)c1O | 512 (≈ 1720 µM) | 512 (≈ 1720 µM) | 2 (≈ 6.7 µM) | > 512 |  |  |
| CCCCC(=O)c1ccc(-c2cc(O)c(O)c(OC)c2)cc1 | 512 (≈ 1700 µM) | 512 (≈ 1700 µM) | 512 (≈ 1700 µM) | 512 (≈ 1700 µM) |  |  |
| COc1cc(-c2ccccc2)cc(OC(=O)C2CCCCC2)c1OC(=O)C1CCCCC1 | > 512 | > 512 | > 512 | > 512 |  |  |
| CCCCCc1ccc(-c2cc(O)c(O)c(O)c2)cc1 | 8 (≈ 29.4 µM) | 4 (≈ 14.7 µM) | 2 (≈ 7.34 µM) | 32 (≈ 117 µM) |  |  |
| CCCCCc1ccc(-c2ccc(O)c(O)c2)cc1 | 4 (≈ 15.6 µM) | 2 (≈ 7.8 µM) | 0.25 (≈ 0.975 µM) | 16 (≈ 62.4 µM) | 2 | 0.5 (≈ 1.95 µM) |
| CCCCCc1ccc(-c2cc(O)ccc2O)cc1 | 16 (≈ 62.4 µM) | 16 (≈ 62.4 µM) | 2 (≈ 7.8 µM) | 64 (≈ 250 µM) |  |  |
| CCCCc1ccc(-c2cc(O)c(O)c(OC)c2)cc1 | 16 (≈ 58.7 µM) | 4 (≈ 14.7 µM) | 2 (≈ 7.34 µM) | 32 (≈ 117 µM) |  |  |
| CCCc1ccc(-c2ccc(-c3cc(O)c(O)c(OC)c3)cc2)cc1 | 512 (≈ 1530 µM) | 64 (≈ 191 µM) | 4 (≈ 12 µM) | > 512 |  |  |
| COc1cc(-c2ccccc2)cc(OCc2ccccc2)c1OCc1ccccc1 | > 512 | > 512 | > 512 | > 512 |  |  |
| CCCCCc1ccc(-c2ccc(O)cc2O)cc1 | 2 (≈ 7.8 µM) | 2 (≈ 7.8 µM) | 0.5 (≈ 1.95 µM) | 8 (≈ 31.2 µM) | 1 | 0.5 (≈ 1.95 µM) |
| COc1cc(-c2ccccc2)cc(OC(=O)c2ccc(C)cc2)c1OC(=O)c1ccc(C)cc1 | > 512 | > 512 | > 512 | > 512 |  |  |
| CCCCCCc1cccc(-c2cc(O)c(O)c(OC)c2)c1 | > 512 | 8 (≈ 26.6 µM) | 2 (≈ 6.66 µM) | 512 (≈ 1700 µM) |  |  |
| CCc1cc(CC)cc(-c2cc(O)c(O)c(OC)c2)c1 | 64 (≈ 235 µM) | 16 (≈ 58.7 µM) | 8 (≈ 29.4 µM) | 32 (≈ 117 µM) |  |  |

| SMILES | MIC (Candida albicans) [µg/mL] | MIC (Candida tropicalis) [µg/mL] | MIC (Cryptococcus neoformans [1]) [µg/mL] | MIC (Aspergillus fumigatus) [µg/mL] | Selectivity ratio (Cryptococcus neoformans [2]) | MFC (Cryptococcus neoformans [3]) [µg/mL] |
| --- | --- | --- | --- | --- | --- | --- |
| CCCCCc1ccc(-c2cc(O)c(O)c(OC)c2)cc1 | 8 (≈ 27.9 µM) | 2 (≈ 6.98 µM) | 2 (≈ 6.98 µM) | 512 (≈ 1790 µM) |  |  |
| CCc1ccc(-c2cc(O)c(O)c(OC)c2)cc1 | 32 (≈ 131 µM) | 32 (≈ 131 µM) | 8 (≈ 32.7 µM) | 64 (≈ 262 µM) |  |  |
| CCCCCc1ccc(-c2c(O)cccc2O)cc1 | 32 (≈ 125 µM) | 32 (≈ 125 µM) | 8 (≈ 31.2 µM) | 32 (≈ 125 µM) |  |  |
| CCCc1ccc(-c2cc(O)c(O)c(OC)c2)cc1 | 16 (≈ 61.9 µM) | 8 (≈ 31 µM) | 4 (≈ 15.5 µM) | 64 (≈ 248 µM) |  |  |
| COc1cc(-c2ccc(CCC#N)cc2)cc(O)c1O | 512 (≈ 1900 µM) | 512 (≈ 1900 µM) | 512 (≈ 1900 µM) | 512 (≈ 1900 µM) |  |  |
| COc1cc(-c2ccccc2)cc2c1OCO2 | > 512 | > 512 | > 512 | 512 (≈ 2240 µM) |  |  |
| COc1cc(-c2ccccc2F)cc(O)c1O | 128 (≈ 546 µM) | 128 (≈ 546 µM) | 128 (≈ 546 µM) | 64 (≈ 273 µM) |  |  |
| COc1cc(-c2ccccc2)cc(OC(C)=O)c1OC(C)=O | > 512 | > 512 | > 512 | > 512 |  |  |
| CCCCCc1ccc(-c2cccc(O)c2O)cc1 | 4 (≈ 15.6 µM) | 2 (≈ 7.8 µM) | 1 (≈ 3.9 µM) | 16 (≈ 62.4 µM) |  |  |
| CCCCCCCCc1ccc(-c2cc(O)c(O)c(OC)c2)cc1 | > 512 | > 512 | 4 (≈ 12.2 µM) | > 512 |  |  |
| COc1cc(-c2ccc(CCBr)cc2)cc(O)c1O | 32 (≈ 99 µM) | 32 (≈ 99 µM) | 8 (≈ 24.8 µM) | 128 (≈ 396 µM) |  |  |
| Oc1cc(-c2ccccc2)cc(O)c1O | > 512 | > 512 | 256 (≈ 1270 µM) | > 512 |  |  |
| C=CCOc1cc(-c2ccccc2)cc(OC)c1OCC=C | > 512 | > 512 | > 512 | > 512 |  |  |
| CCCCc1ccc(-c2ccc(O)c(O)c2)cc1 | 4 (≈ 16.5 µM) | 4 (≈ 16.5 µM) | 0.5 (≈ 2.06 µM) | 16 (≈ 66 µM) |  |  |
| COc1cc(-c2ccccc2)cc(OC)c1O [AUCUPARIN] | > 512 | > 512 | 64 (≈ 278 µM) | > 512 |  |  |
| CCCCCc1ccc(-c2ccc(O)c(O)c2O)cc1 | 8 (≈ 29.4 µM) | 4 (≈ 14.7 µM) | 4 (≈ 14.7 µM) | 32 (≈ 117 µM) |  |  |
| COc1cc(-c2ccc(C(C)(C)C)cc2)cc(O)c1O | 16 (≈ 58.7 µM) | 16 (≈ 58.7 µM) | 4 (≈ 14.7 µM) | 64 (≈ 235 µM) |  |  |
| COc1cc(-c2ccc(O)cc2)cc(O)c1O | > 512 | > 512 | > 512 | > 512 |  |  |
| COc1cc(-c2ccc(C(C)C)cc2)cc(O)c1O | 16 (≈ 61.9 µM) | 16 (≈ 61.9 µM) | 8 (≈ 31 µM) | 64 (≈ 248 µM) |  |  |
